# Read-outs that look alike come from different tables or passages of the source.
# How the values were obtained:
# sucrose loaded rats = assay: Sucrose loaded rat model (SLM), antihyperglycemic activity; assay type: in vivo, rat (Charles Foster/Wistar); details: for inhibition in vivo at 100 mg/kg: Rattus norvegicus, 2 h, 100 mg/kg oral, sucrose load 10.0 g/kg, AUC vs control, 30-120 min, read-out: % Fall in blood glucose levels SLM; for activity in SLM model: summary statement
# Method: Male albino rats of Charles Foster/Wistar strain of average body weight 160±20 g were selected for this study. The blood glucose level of each animal was checked by glucometer using glucostrips (Boehringer Mannheim) after 16 h starvation. Animals showing blood glucose levels between 3.33 to 4.44 mM (60 to 80 mg/dl) were divided into groups of five to six animals in each. Animals of experimental group were administered suspension of the desired synthetic compound orally (made in 1.0% gum acacia) at a dose of 100-mg/kg-body weight. Animals of control group were given an equal amount of 1.0% gum acacia. A sucrose load (10.0 g/kg) was given to each animal orally exactly after 30 min post administration of the test sample/vehicle. Blood glucose profile of each rat was again determined at 30, 60, 90 and 120 min post administration of sucrose by glucometer. Food but not water was withheld from the cages during the course of experimentation. Quantitative glucose tolerance of each animal was calculated by Area Under Curve (AUC) method (Prism Software). Comparing the AUC of experimental and control groups determined the percentage antihyperglycemic activity. Statistical comparison was made by Dunnett's test.
# [1] = test system: streptozotocin-induced diabetic rats; assay: Sucrose-challenged streptozotocin-induced diabetic rats (STZ-S), antihyperglycemic activity; assay type: in vivo, rat (Sprague Dawley); details: for activity in STZ model: summary statement
# Method: Male albino rats of Sprague Dawley strain of body weight […] were selected for this study. Streptozotocin (Sigma, USA) was dissolved in 100 mM citrate buffer pH 4.5 and calculated amount of the fresh solution was injected to overnight fasted rats (45 mg/kg) intraperitoneally. Blood glucose level was checked 48 h later by glucostrips and animals showing blood glucose values between 144 to 270 mg/dl (8 to 15 mM) were included in the experiment and termed diabetic. The diabetic animals were divided into groups consisting of five to six animals in each group. Animals of experimental groups were administered suspension of the desired test samples orally (made in 1.0% gum acacia) at a dose of 100-mg/kg-body weight. Animals of control group were given an equal amount of 1.0% gum acacia. A sucrose load of 2.5-g/kg body weight was given after 30 minutes of compound administration. After 30 minutes of post sucrose load blood glucose level was again checked by glucostrips at 30, 60, 90, 120, 180, 240, 300 min and at 24 h, respectively. Animals not found diabetic after 24 hours post treatment of the test sample were not considered and omitted from the calculations and termed as non-responders. […] Food but not water was withheld from the cages during the experimentation. Comparing the AUC of experimental and control groups determined the percent antihyperglycemic activity. Statistical comparison between groups was made by Student's ‘t’ test.
# [2] = test system: triton WR-1339 induced hyperlipidemic rats; assay: Triton model, antidyslipidemic activity; assay type: in vivo, rat (Charles foster); details: Rattus norvegicus, 100 mg/kg oral
# Method: Male Charles foster rats weighing 200-225 g were divided into control, hyperlipidemic and hyperlipidemic plus drug treated groups containing six animals in each group. Hyperlipidemia was induced by administration of triton WR-1339 (200 mg/kg i.p.). All animals were maintained on a special pellet diet and water ad libitum. Compounds and standard drug were macerated with 0.2% aqueous gum acacia suspension. The suspension was fed orally at the dose of 100 mg/kg simultaneously with triton in drug treated group. The animals of control group received the same amount of gum acacia by similar route of administration. At the end of the experiment, after 18 h, blood was withdrawn from retro orbital plexus and plasma was used for the assay of total cholesterol, phospholipid and triglycerides.
# Cholesterol was estimated using the kit provided by Roche Diagnostics. Cholesterol esters are enzymatically hydrolyzed by cholesterol esterase (CE) to cholesterol and free fatty acids. Free cholesterol, including that originally present, is then oxidized by cholesterol oxidase (CO) to cholest-4-en-3-one and hydrogen peroxide. The hydrogen peroxide combines with hydroxy benzoic acid (HBA) and 4-aminoantipyrine (4AAA) in the presence of peroxidase (POD) to form a chromophore (quinoneimine dye), which may be quantitated at 500-505 nm. The intensity of red colour formed is directly proportional to the concentration of total cholesterol in the specimen and measured spectrophotometrically (Searcy, C. L. Diagnostic Biochemistry, 1969, McGraw Hill, New York; Ellefson, R. D.; Caraway, W. T. Fundamentals of clinical chemistry, 1976, Ed Tietz N W, 506-515.)
# Triglycerides were estimated using the kit provided by Roche Diagnostics. Lipoprotein lipase hydrolyses triglycerides to yield glycerol and fatty acids. Glycerol kinase converts glycerol to glycerol-3-phosphate, which is oxidized by glycerol phosphate oxidase to dihydroxy acetone phosphate and hydrogen peroxide. In the presence of peroxidase, hydrogen peroxide oxidatively couples with 4-aminoantipyrine and 4-chloro phenol to produce red quinonimine dye. The intensity of red colour formed is directly proportional to the concentration of triglycerides in the specimen and is measured by photometrically (Wahlefeld, A. W.; Bergmeyer, H. U. Ed. Methods of enzymatic analysis, 2nd English edition, New York, N.Y., Academic press inc, 1831-1840.).
# Serum (0.2 mL) and perchloric acid (1.0 mL) was digested at 180° C. for 1-1.5 h till the solution became colorless. The liberated inorganic phosphate (Pi) was measured by the method of Fiske and Subbarow (Fiske, C. H.; Subbarow, V. J. Biol. Chem. 1925, 66, 375.). 1 mL of 2.5% ammonium molybdate (prepared in 5 N sulphuric acid) and 0.5 mL reducing agent (4-amino naphthol sulphonic acid, 0.2%), sodium metabisulphite (2.4% w/v in distilled water) was added to the above tubes and mixed well. The reaction mixture was […] with 2.5 mL of triple distilled water and kept at 60° C. in water bath for 20 min. For standard, an appropriate amount of potassium dihydrogen phosphate dissolved in triple distilled water containing 2-10 μg phosphorus (Pi) was run simultaneously with the experiment tubes. The optical density of the blue colour was recorded at 620 nm against reagent blank. The values of Pi were converted into phospholipid by multiplying with 25 (a constant calibrated from Pi value of lecithin).
# [3] = 100 mg/kg oral, sucrose load 2.5 g/kg, AUC vs control
# [4] = plasma phospholipid after 18 h, read-out: % Fall in lipid levels (Triton model) PL
# [5] = plasma total cholesterol after 18 h, read-out: % Fall in lipid levels (Triton model) TC
# [6] = plasma triglycerides after 18 h, read-out: % Fall in lipid levels (Triton model) TG
Compound,inhibition in vivo at 100 mg/kg (sucrose loaded rats) [%],"% Fall in blood glucose levels STZ-S 5 h ([1]; 100 mg/kg oral, sucrose load 2.5 g/kg, AUC vs control, 5 h) [%]","% Fall in blood glucose levels STZ-S 24 h [1, 3] [%]","inhibition in vivo at 100 mg/kg [2, 4] [%]","inhibition in vivo at 100 mg/kg [2, 5] [%]","inhibition in vivo at 100 mg/kg [2, 6] [%]",activity in SLM model (sucrose loaded rats),activity in STZ model [1]
"O=C1NC(=O)/C(=C\c2ccc(OCCCCCOc3cccc(C(=O)/C=C/c4ccc5c(c4)OCO5)c3)cc2)S1 [Compound 46, 3,4-Methylenedioxy-3′-{5-[4-(thiazolidin-2,4-dione-5-ylidinemethyl)-phenoxy]-pentyloxy}-chalcone]",13.4,11.8,7.18,20,13,20,–,–
"CC(C)(C)NCC(O)COc1ccc(C(=O)/C=C/c2ccc3c(c2)OCO3)cc1 (centres unmarked) [Compound 34, 4′-[^3-tert-Butylamino-2-hydroxy-propoxy]-3,4-methylenedioxy-chalcone]",21.1,–,23.0,20,26,18,significant results,significant results
"COc1ccc(/C=C/C(=O)c2ccc(OCC(O)CN3CCN(c4ccccc4)CC3)cc2)cc1OC (centres unmarked) [Compound 18, 3,4-Dimethoxy-4′-[2-hydroxy-3-(4-phenylpiperazin-1-yl)-propoxy]-chalcone]",15.4,–,20.3,8,20,12,significant results,significant results
